{
  "source": "patent US20080039434A1",
  "about": "“Treatment of Interstitial Cystitis with Vitamin D Compounds” (BioXell S. p.A., priority 2004, published 2008)",
  "key": {"[1]": {"test_system": "rats with CYP-induced cystitis", "assay": "Cystometry in rats with CYP induced chronic IC, Compound B", "type": "in vivo, rat", "details": "for # of NVBC / FP / MP / TP / amplitude of NVBC / Bl. Cap.: group value; for Bl. Cap.: unit from FIG. 5 legend", "text": "Wistar rats ([…] weighing 125-175 g, age 8 weeks) were used. Under general inhalation anesthesia with 2% isoflurane, polyethylene tubing (PE-50, Clay Adams, Parsippany, N.J.) with the end flared by heat was inserted into the dome of the bladder and secured in place with a 6-0 nylon purse string suture. The distal end of the tubing was sealed, tunneled subcutaneously and externalized through a small incision at the back of the neck. The tubing was then coiled and buried subcutaneously. Following recovery (5 days) subject animals underwent three intraperitoneal injections of CYP (Sigma Chemical, St. Louis, Mo.; 75 mg/kg each, intraperitoneal) over the period of nine days. […] Two weeks following the initiation of the treatment animals underwent a conscious cystometrogram to assess the function of the urinary bladder. […] An ethanol stock solution of Compound B (1 mg/ml) was dissolved in Miglyol vehicle at the appropriate concentration. Control animals received the vehicle containing the same amount of ethanol. Drug (or vehicle) treatment was carried out by daily gavage after weighing the animal. Drug solution was prepared calculating a final volume of 100 ul/10 grams body weight. Following two weeks of treatment, animals were placed unrestrained in a cage and the distal end of the catheter was extracted from the subcutaneous pouch and connected via T-tube to a pressure transducer (Grass® Model PT300, West Warwick, R.I.) and microinjection pump (Harvard Apparatus 22, South Natick, Mass.). Saline solution (0.9%, room temperature) was infused into the bladder at a rate of 10 ml/h. Intravesical pressure was recorded continuously using a Neurodata Acquisition System (Grass®, Astro-Med, West Warwick, R.I.). At a minimum, three reproducible micturition cycles were recorded. […] The post-void residual (PVR) was measured by aspirating the residual urine remaining in the bladder after the last micturition or draining the bladder by gravity. Bladder capacity (BC) was calculated as the sum of voided volume and PVR. The bladder was harvested and its weight was recorded following euthanasia."}, "total IgE": {"test_system": "total IgE", "assay": "Serum total IgE ELISA, allergic IC in mice", "type": "in vivo, mouse", "details": "75 ug/kg oral vs vehicle; ovalbumin-sensitized BALB/c mice", "procedure": "(§1) Mice (BALB/c, females 8 weeks old, weight 18-20 g, Charles River, Calco ITA) were sensitized by injecting 10 ug/mouse of chicken ovalbumin from Sigma (OVA, grade V) in the presence of 4 mg of alum (SERVA, Germany) by intraperitoneal injection, once a week for 4 weeks. This induces a sustained level of IgE detectable in serum.\n(§2) One or two weeks after the last immunization boost, sensitized mice were anesthetized (1.5% Isoflurane) and then trans-urethrally catheterized (24 gauge, ¾ in.; Angiocath, Becton-Dickson). Slight digital pressure was applied the lower abdomen to drain the urine.\nThe urinary bladders were instilled with either 150 ul of either saline or OVA alone, (1 mg/150 ul) infused at a slow rate to avoid trauma and vesico-ureteral reflux and repeated twice within a 30-min interval with the syringe kept in place on the catheter for at least 30 min. Intravesical challenge was repeated 7-10 days after the first one with the same procedure. […]\nSerum total IgE levels were measured by using a commercially available kit (BD Opteia, Mouse IgE ELISA Set Cat. No. 555248) and following manufacturer's instructions. […] After reaction stopping (H2SO4 1M, 50 ul/well) absorbance at 450 nm was recorded within 30 minutes."}, "IL-13": {"test_system": "IL-13", "assay": "Taq-Man analysis of bladder mRNA, allergic IC in mice: IL-13", "type": "in vivo, mouse", "details": "ovalbumin challenged", "procedure": "as §1, §2\nThe urinary bladders were instilled with either 150 ul of either saline or OVA alone, (1 mg/150 ul) infused at a slow rate to avoid trauma and vesico-ureteral reflux and repeated twice within a 30-min interval with the syringe kept in place on the catheter for at least 30 min. Intravesical challenge was repeated 7-10 days after the first one with the same procedure.\nAn ethanol stock solution of Compound B (1 mg/ml) was dissolved in Miglyol vehicle at the appropriate concentration. Control animals received the vehicle containing the same amount of ethanol. Drug (or vehicle) treatment was carried out by daily gavage after weighing the animal. Drug solution was prepared calculating a final volume of 100 ul/10 grams body weight, and treatment was started on the day of the first intravesical ovalbumin challenge, maintained daily, but discontinued over the weekends, for 12 days total treatment. FIG. 7 illustrates the timeline of the experiment.\nTotal RNA was extracted from one half of bladder by using RNeasy Mini kit (Qiagen), treated with DNase 1 (Qiagen) and reverse transcription performed with Reverse Transcription Reagent (Applied Biosystems) with Random Hexamers (according to the manufacturer's instructions). cDNA was synthesized from 1 ug of RNA. Real-Time PCR was performed in 96-well optical reaction plates (Applied Biosystems). For each sample we amplified both the target gene and the housekeeping gene (HPRT) in different wells (singleplex) and in duplicate. The amplification Master Mix was prepared according to the following protocol (volumes refer to a single well with a final volume of 40 ul/well)): 2× TaqMan® R Universal PCR Master Mix (Applied Biosystems, 4304437): 20 ul; 20× Assay target gene: 2 ul; H2O: 8 ul; cDNA: 10 ul. Reaction was run on an SDS 7000 (Applied Biosystems) instruments, with the following amplification program: 2′ at 50° C.; 10′ at 95° C.; 15″ at 95° C. and 1′ at 60° C. for 40 cycles; Cycle threshold (Ct) values were exported into Excel Worksheets for analysis and relative quantitations were performed using the ΔCt method. All primers used carried the FAM reporter.\nExperiments in Example 7 were performed according to the general procedures described previously in Example 6. Mice were challenged with saline (untreated) or ovalbumin (treatment with vehicle or one of Compounds C-I at a dosage indicated in Table 6 in ug/kg)."}, "[2]": {"details": "30 ug/kg oral daily for 14 days"}, "[3]": {"details": "75 ug/kg oral daily for 14 days"}, "[4]": {"details": "vs vehicle, not statistically significant"}},
  "data": [
    {"smiles": "C=C1/C(=C\\C=C2/CCC[C@]3(C)C([C@@H](C)C/C=C/C(O)(CC)CC)=CC[C@@H]23)C[C@@H](O)C[C@@H]1F", "note": "[Compound B, 1-alpha-fluoro-25-hydroxy-16,23E-diene-26,27-bishomo-20-epi-cholecalciferol]", "values": [
      {"measurement": "# of NVBC", "setting": "[1]; [2]", "result": 11.7},
      {"measurement": "FP", "setting": "[1]; [2]", "result": 23.3, "unit": "cm H2O"},
      {"measurement": "MP", "setting": "[1]; [2]", "result": 79.3, "unit": "cm H2O"},
      {"measurement": "TP", "setting": "[1]; [2]", "result": 29.3, "unit": "cm H2O"},
      {"measurement": "amplitude of NVBC", "setting": "[1]; [2]", "result": 16.6},
      {"measurement": "Bl. Cap.", "setting": "[1]; [2]", "result": 2.0, "unit": "mL"},
      {"measurement": "# of NVBC", "setting": "[1]; [3]", "result": 8.3},
      {"measurement": "FP", "setting": "[1]; [3]", "result": 26.1, "unit": "cm H2O"},
      {"measurement": "MP", "setting": "[1]; [3]", "result": 90.5, "unit": "cm H2O"},
      {"measurement": "TP", "setting": "[1]; [3]", "result": 36.3, "unit": "cm H2O"},
      {"measurement": "amplitude of NVBC", "setting": "[1]; [3]", "result": 13.6},
      {"measurement": "Bl. Cap.", "setting": "[1]; [3]", "result": 2.1, "unit": "mL"},
      {"measurement": "frequency of non-voiding bladder contractions", "setting": "[1]; both dosage levels (30 ug/kg, p<0.01; 75 ug/kg, p<0.005) vs vehicle", "result": "significantly reduced"},
      {"measurement": "bladder capacity", "setting": "[1]; both dosage levels (30 ug/kg, p<0.01; 75 ug/kg, p<0.01) vs vehicle", "result": "increased"},
      {"measurement": "amplitude of non-voiding bladder contractions", "setting": "[1]; higher dose level (75 ug/kg), not statistically significant", "result": "reduced"},
      {"measurement": "filling pressure", "setting": "[1]; [4]", "result": "Marginal increase"},
      {"measurement": "threshold pressure", "setting": "[1]; [4]", "result": "Marginal increase"},
      {"measurement": "total amount of IgE in serum", "setting": "total IgE", "result": "no significant changes"},
      {"measurement": "expression of inflammatory marker IL-13", "setting": "IL-13; 75 ug/kg oral, individual animals", "result": "down-modulates"},
      {"measurement": "expression of inflammatory marker IL-13", "setting": "IL-13; 30 and 75 ug/kg oral, dose dependent, pooled samples", "result": "significantly reduces"}
    ]}
  ]
}
